ChEMBL document CHEMBL4507274 (2021)
Active and inactive are the calls of the source. The rule behind the calls is not given here.

Assays:
[1] = target: Cyclin-dependent kinase 2/cyclin E (Homo sapiens) (UniProt P24864+P24941+O96020); assay: CDK2/ cyclin E (h) Upstate kinase activity assay; format: protein-complex assay; conditions: Compound concentration 10.0 uM
[2] = target: Tyrosine-protein kinase ABL2 (Mus musculus) (UniProt Q4JIM5); assay: Arg (m) Upstate kinase activity assay; conditions: Compound concentration 10.0 uM
[3] = target: Angiopoietin-1 receptor (Homo sapiens) (UniProt Q02763); assay: Tie2 (h) Upstate kinase activity assay; conditions: Compound concentration 10.0 uM
[4] = target: Rho-associated protein kinase 2 (Rattus norvegicus, UniProt Q62868); assay: ROCK-2 (r) Upstate kinase activity assay
Sequence of Rho-associated protein kinase 2 (Q62868 whole entry): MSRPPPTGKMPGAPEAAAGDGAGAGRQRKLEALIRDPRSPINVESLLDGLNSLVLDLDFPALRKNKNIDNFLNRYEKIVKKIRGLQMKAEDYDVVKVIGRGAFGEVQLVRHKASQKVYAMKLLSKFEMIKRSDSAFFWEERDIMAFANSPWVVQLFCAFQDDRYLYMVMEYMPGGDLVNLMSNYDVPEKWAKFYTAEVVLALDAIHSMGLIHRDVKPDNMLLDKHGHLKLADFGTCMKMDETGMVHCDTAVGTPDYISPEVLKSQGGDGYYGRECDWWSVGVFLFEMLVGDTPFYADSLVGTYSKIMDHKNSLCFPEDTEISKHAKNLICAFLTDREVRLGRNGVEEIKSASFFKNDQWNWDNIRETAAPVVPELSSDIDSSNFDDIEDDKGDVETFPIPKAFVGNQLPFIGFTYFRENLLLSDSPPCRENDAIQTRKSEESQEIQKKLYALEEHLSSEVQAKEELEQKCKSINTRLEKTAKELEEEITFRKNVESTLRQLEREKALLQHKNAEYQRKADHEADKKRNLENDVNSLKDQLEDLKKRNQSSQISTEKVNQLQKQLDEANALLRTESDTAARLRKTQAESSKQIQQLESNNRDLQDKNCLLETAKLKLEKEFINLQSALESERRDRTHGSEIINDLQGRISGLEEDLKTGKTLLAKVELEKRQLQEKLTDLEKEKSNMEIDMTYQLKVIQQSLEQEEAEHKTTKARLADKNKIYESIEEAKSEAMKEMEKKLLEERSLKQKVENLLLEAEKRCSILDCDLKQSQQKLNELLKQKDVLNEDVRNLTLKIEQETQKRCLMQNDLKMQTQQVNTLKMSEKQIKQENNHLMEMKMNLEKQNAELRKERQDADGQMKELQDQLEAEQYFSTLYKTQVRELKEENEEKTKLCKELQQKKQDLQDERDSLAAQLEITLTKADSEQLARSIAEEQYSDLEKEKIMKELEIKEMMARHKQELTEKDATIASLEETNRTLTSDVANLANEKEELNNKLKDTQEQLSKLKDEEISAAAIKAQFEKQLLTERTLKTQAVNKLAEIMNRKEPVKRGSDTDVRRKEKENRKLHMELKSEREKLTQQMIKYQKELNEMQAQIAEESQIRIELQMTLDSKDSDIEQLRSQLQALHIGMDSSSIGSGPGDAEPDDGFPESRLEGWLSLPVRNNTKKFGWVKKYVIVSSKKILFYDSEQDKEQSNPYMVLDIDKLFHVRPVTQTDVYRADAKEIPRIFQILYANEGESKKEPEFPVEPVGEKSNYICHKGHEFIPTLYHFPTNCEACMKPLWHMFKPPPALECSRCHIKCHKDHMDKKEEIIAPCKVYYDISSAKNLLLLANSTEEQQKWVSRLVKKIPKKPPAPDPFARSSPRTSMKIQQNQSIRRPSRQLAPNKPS

[5] = target: Insulin-like growth factor 1 receptor (Homo sapiens) (UniProt P08069); assay: IGF-1R (h) Upstate kinase activity assay; conditions: Compound concentration 10.0 uM
[6] = target: Ribosomal protein S6 kinase alpha-5 (Homo sapiens) (UniProt O75582); assay: MSK1 (h) Upstate kinase activity assay; conditions: Compound concentration 10.0 uM
[7] = target: Tyrosine-protein kinase Lyn (Mus musculus) (UniProt P25911); assay: Lyn (m) Upstate kinase activity assay; conditions: Compound concentration 10.0 uM
Sequence of Tyrosine-protein kinase Lyn (Mus musculus) (P25911 whole entry): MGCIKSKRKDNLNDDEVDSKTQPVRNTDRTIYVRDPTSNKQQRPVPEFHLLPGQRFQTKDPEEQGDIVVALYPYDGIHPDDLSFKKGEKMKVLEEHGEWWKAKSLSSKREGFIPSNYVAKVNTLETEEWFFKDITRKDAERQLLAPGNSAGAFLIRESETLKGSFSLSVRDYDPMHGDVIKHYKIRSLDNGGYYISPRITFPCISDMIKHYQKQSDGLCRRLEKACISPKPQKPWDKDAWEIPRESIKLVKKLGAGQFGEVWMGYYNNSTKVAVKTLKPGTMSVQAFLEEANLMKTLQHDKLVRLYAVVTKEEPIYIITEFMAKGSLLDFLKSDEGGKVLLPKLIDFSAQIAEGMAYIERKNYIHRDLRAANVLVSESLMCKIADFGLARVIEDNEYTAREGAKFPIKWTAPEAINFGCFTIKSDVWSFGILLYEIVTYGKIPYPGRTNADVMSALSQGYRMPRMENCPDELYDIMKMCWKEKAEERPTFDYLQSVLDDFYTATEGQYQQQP

[8] = target: Tyrosine-protein kinase Fgr (Homo sapiens) (UniProt P09769); assay: Fgr (h) Upstate kinase activity assay; conditions: Compound concentration 10.0 uM
Sequence of Tyrosine-protein kinase Fgr (Homo sapiens) (P09769 2-529 limits assumed): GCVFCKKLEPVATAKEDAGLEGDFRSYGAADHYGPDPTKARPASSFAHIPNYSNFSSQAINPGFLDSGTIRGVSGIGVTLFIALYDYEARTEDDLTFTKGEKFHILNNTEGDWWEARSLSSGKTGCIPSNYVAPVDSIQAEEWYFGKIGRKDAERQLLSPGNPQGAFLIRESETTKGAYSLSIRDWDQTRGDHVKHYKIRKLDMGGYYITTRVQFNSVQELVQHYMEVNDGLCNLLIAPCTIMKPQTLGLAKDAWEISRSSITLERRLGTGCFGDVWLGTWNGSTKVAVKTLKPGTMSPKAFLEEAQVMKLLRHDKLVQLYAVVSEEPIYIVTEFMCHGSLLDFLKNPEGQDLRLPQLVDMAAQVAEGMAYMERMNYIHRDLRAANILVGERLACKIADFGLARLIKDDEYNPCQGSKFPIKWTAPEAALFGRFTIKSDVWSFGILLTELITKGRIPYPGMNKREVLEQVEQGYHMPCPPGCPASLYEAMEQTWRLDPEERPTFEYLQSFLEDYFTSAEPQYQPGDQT

MIA PaCa-2 = assay: Pancreas MIA PaCa-2 cell line MDS Pharma Services Proliferation Assay; format: functional, cell-based, Homo sapiens
Hep 3B2 = assay: Liver Hep 3B cell line MDS Pharma Services Proliferation Assay; format: functional, cell-based, Homo sapiens
[9] = Mechanistic tissue assay (arteria saphena rabbit); format: tissue-based, Oryctolagus cuniculus, Saphenous artery
[10] = target: CDK7/Cyclin H/MNAT1 (Homo sapiens) (UniProt P51946+P50613+P51948); assay: CDK7/ cyclin H/ MATI (h) Upstate kinase activity assay; format: protein-complex assay; conditions: Compound concentration 10.0 uM
[11] = target: T1, Serine/threonine-protein kinase D1 (Homo sapiens) (UniProt Q15139); assay: PKCmu (h) Upstate kinase activity assay; conditions: Compound concentration 10.0 uM
T1 sequence (whole entry): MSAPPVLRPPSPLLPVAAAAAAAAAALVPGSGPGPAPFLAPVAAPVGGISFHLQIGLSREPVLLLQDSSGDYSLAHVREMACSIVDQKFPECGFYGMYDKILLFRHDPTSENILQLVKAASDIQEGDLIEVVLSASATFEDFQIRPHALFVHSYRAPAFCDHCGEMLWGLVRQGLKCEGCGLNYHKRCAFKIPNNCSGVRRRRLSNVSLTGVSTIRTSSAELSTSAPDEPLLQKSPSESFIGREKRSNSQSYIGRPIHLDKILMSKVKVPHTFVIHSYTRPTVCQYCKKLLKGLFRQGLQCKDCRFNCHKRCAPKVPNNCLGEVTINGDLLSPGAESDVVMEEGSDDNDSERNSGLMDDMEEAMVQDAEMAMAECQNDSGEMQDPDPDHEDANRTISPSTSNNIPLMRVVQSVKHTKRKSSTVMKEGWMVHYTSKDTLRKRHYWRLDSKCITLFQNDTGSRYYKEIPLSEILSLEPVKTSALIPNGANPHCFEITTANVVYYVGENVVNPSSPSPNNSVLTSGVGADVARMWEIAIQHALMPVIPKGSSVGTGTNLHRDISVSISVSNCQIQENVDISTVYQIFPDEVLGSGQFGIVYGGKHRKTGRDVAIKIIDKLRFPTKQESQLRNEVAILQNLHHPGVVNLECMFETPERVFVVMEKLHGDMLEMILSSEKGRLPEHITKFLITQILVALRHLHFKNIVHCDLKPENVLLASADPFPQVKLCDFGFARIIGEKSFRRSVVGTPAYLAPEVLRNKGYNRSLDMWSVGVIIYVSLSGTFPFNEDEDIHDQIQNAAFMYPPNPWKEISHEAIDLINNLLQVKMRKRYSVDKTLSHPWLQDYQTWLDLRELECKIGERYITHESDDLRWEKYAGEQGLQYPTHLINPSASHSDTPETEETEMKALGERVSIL

[12] = target: T2, Dual specificity mitogen-activated protein kinase kinase 7 (Homo sapiens) (UniProt O14733); assay: MKK7βbeta(h) Upstate kinase activity assay; conditions: Compound concentration 10.0 uM
T2 sequence (whole entry): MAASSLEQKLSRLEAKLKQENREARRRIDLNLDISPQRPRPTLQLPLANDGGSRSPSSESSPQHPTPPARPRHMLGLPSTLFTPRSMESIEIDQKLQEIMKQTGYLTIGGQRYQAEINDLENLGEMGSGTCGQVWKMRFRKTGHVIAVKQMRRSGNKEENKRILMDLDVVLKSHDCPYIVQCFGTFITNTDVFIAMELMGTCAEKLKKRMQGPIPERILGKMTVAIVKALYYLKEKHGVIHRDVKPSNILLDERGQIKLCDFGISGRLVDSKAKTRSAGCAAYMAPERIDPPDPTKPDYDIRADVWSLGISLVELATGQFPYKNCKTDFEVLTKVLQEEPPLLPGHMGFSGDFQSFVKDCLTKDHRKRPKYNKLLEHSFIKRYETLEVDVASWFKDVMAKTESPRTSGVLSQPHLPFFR

PANC-1 = assay: Pancreas PANC-1 cell line MDS Pharma Services Proliferation Assay; format: functional, cell-based, Homo sapiens
[13] = target: Glycogen synthase kinase-3 beta (Homo sapiens) (UniProt P49841); assay: GSK3beta (h) Upstate kinase activity assay; conditions: Compound concentration 10.0 uM
[14] = target: RAC-beta serine/threonine-protein kinase (Homo sapiens) (UniProt P31751); assay: PKBbeta (h) Upstate kinase activity assay; conditions: Compound concentration 10.0 uM
Sequence of RAC-beta serine/threonine-protein kinase (Homo sapiens) (P31751 whole entry): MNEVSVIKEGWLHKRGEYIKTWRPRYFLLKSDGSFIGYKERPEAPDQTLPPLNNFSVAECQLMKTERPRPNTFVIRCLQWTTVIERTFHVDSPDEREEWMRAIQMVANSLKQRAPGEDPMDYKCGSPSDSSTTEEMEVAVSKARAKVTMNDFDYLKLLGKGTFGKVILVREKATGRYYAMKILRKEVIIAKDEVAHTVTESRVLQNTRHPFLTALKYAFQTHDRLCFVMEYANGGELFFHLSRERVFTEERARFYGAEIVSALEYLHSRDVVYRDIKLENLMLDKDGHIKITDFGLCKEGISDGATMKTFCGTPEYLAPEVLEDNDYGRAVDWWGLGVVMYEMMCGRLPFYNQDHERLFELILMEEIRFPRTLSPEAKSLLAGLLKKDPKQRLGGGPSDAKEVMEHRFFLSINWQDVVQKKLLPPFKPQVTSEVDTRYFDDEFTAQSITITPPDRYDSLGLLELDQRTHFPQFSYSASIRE

[15] = target: High affinity nerve growth factor receptor (Homo sapiens) (UniProt P04629); conditions: Compound concentration 10.0 uM
Sequence of High affinity nerve growth factor receptor (Homo sapiens) (P04629 33-796 limits assumed): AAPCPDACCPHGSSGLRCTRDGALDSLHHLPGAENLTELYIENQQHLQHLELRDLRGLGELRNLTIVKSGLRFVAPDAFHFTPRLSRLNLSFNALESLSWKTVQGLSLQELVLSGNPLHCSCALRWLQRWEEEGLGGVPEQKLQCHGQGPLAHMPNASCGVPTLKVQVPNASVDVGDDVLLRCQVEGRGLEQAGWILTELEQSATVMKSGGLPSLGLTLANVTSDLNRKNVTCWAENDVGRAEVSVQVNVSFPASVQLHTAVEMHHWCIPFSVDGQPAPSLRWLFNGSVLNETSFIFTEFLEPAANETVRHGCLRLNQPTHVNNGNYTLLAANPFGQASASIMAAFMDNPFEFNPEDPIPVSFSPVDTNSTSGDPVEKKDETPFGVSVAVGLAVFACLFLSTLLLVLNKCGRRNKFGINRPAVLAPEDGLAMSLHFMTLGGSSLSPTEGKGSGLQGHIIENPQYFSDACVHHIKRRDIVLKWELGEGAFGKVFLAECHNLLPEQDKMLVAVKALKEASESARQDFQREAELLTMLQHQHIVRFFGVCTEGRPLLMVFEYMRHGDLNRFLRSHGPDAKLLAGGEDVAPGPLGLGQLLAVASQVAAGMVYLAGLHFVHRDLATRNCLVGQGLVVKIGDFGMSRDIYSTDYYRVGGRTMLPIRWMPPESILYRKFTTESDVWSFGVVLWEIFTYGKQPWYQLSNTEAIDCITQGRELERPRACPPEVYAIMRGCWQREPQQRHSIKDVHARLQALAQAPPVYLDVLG

[16] = target: ALK tyrosine kinase receptor (Homo sapiens) (UniProt Q9UM73); assay: ALK (h) Upstate kinase activity assay; conditions: Compound concentration 10.0 uM
T47D = assay: Breast T-47D cell line MDS Pharma Services Proliferation Assay; format: functional, cell-based, Homo sapiens
[17] = target: 5-hydroxytryptamine receptor 2A (Homo sapiens) (UniProt P28223); conditions: Compound concentration 10.0 uM
[18] = tested on: Epidermal growth factor receptor (Homo sapiens), P00533 [UNDEFINED MUTATION]; conditions: Compound concentration 100.0 nM
Sequence of Epidermal growth factor receptor (Homo sapiens), P00533 [UNDEFINED MUTATION] (P00533 whole entry, looked up, change not shown): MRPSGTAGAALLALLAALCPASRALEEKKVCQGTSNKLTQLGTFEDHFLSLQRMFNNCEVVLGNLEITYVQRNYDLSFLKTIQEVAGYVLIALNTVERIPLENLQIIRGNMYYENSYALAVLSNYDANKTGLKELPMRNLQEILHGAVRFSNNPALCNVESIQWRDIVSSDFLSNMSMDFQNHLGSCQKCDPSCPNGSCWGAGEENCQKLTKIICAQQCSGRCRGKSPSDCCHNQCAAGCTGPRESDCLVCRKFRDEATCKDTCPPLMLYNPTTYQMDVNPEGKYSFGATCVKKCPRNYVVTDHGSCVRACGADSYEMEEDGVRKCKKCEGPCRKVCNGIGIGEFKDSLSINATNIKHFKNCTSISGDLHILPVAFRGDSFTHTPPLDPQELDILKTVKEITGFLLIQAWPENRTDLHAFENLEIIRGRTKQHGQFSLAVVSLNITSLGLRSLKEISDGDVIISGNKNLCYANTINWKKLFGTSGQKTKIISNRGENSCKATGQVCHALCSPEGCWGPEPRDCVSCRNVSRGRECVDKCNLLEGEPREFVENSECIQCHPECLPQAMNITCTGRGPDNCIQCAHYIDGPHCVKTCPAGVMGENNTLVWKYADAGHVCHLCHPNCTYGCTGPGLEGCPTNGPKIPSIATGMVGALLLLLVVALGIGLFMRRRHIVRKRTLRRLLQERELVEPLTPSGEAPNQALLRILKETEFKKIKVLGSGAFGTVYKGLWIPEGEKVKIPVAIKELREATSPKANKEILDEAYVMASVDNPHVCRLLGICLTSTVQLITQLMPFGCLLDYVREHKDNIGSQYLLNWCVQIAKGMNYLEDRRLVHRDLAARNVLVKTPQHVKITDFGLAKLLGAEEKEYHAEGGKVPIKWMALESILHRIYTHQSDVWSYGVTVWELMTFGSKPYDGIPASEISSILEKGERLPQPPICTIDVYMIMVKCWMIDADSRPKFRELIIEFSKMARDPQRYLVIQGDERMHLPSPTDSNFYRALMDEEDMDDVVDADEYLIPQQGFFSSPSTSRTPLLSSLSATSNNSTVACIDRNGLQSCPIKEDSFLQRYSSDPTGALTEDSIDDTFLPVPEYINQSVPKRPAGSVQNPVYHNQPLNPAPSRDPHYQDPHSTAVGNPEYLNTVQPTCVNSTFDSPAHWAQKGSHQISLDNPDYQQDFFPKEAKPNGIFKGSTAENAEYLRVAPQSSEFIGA

[19] = tested on: Epidermal growth factor receptor (Homo sapiens), P00533 [UNDEFINED MUTATION]; conditions: Compound concentration 100.0 nM; remark: listed apart in the source

**Q.** Which results are given for Cc1c[nH]c2nccc(Oc3c(F)cc(Nc4cc(Cl)nc(N)n4)cc3F)c12 [BAY-549]?
**A.** inhibition [1]: 40%; inhibition [2]: 36%; inhibition [3]: 26%; IC50 [4]: < 1 nM; inhibition [5]: 41%; inhibition [6]: 86%; inhibition [7]: 4%; inhibition [8]: 27%; Mean % growth (n = 2) for 10.0 µM probe concentration (MIA PaCa-2): 45%; IC50 (MIA PaCa-2; Homo sapiens, MIA PaCa-2): 8.9 µM; TGI (MIA PaCa-2; Homo sapiens, MIA PaCa-2): 48 µM; CC50 (MIA PaCa-2; Homo sapiens, MIA PaCa-2, read-out: LC50 (the source's name)): > 100 µM; Mean % growth (n = 2) for 0.1 µM probe concentration (MIA PaCa-2; ± SEM 1 % growth): 98%; Mean % growth (n = 2) for 0.01 µM probe concentration (MIA PaCa-2; ± SEM 3 % growth): 95%; Mean % growth (n = 2) for 1.0 µM probe concentration (MIA PaCa-2; ± SEM 3 % growth): 88%; Mean % growth (n = 2) for 100.0 µM probe concentration (MIA PaCa-2; ± SEM 5 % growth): -23%; Mean % growth (n = 2) for 10.0 µM probe concentration (Hep 3B2): 11%; IC50 (Hep 3B2; Homo sapiens, Hep3B): 1300 nM; TGI (Hep 3B2; Homo sapiens, Hep3B): 45 µM; CC50 (Hep 3B2; Homo sapiens, Hep3B, read-out: LC50 (the source's name)): > 100 µM; Mean % growth (n = 2) for 0.1 µM probe concentration (Hep 3B2; ± SEM 3 % growth): 82%; Mean % growth (n = 2) for 100.0 µM probe concentration (Hep 3B2; ± SEM 5 % growth): -4%; Mean % growth (n = 2) for 1.0 µM probe concentration (Hep 3B2; ± SEM 6 % growth): 51%; Mean % growth (n = 2) for 0.01 µM probe concentration (Hep 3B2; ± SEM 8 % growth): 90%; IC50 [9]: 65 nM (active); inhibition [10]: 57%; inhibition [11]: 60%; inhibition [12]: 20%; TGI (PANC-1; Homo sapiens, PANC-1): 45 µM; CC50 (PANC-1; Homo sapiens, PANC-1, read-out: LC50 (the source's name)): > 100 µM; Mean % growth (n = 2) for 10.0 µM probe concentration (PANC-1; ± SEM 1 % growth): 55%; Mean % growth (n = 2) for 1.0 µM probe concentration (PANC-1; ± SEM 2 % growth): 87%; Mean % growth (n = 2) for 0.1 µM probe concentration (PANC-1; ± SEM 3 % growth): 86%; Mean % growth (n = 2) for 0.01 µM probe concentration (PANC-1; ± SEM 8 % growth): 98%; Mean % growth (n = 2) for 100.0 µM probe concentration (PANC-1; ± SEM 9 % growth): -31%; inhibition [13]: -1%; inhibition [14]: 85%; inhibition [15]: 99%; inhibition [16]: 78%; IC50 (T47D; Homo sapiens, T47D): 2900 nM; TGI (T47D; Homo sapiens, T47D): 15 µM; CC50 (T47D; Homo sapiens, T47D, read-out: LC50 (the source's name)): 75 µM; Mean % growth (n = 2) for 1.0 µM probe concentration (T47D; ± SEM 1 % growth): 86%; Mean % growth (n = 2) for 100.0 µM probe concentration (T47D; ± SEM 2 % growth): -45%; Mean % growth (n = 2) for 10.0 µM probe concentration (T47D; ± SEM 4 % growth): -2%; Mean % growth (n = 2) for 0.01 µM probe concentration (T47D; ± SEM 6 % growth): 106%; Mean % growth (n = 2) for 0.1 µM probe concentration (T47D; ± SEM 8 % growth): 97%

**Q.** For Cn1cc(Cl)c2c(Oc3c(F)cc(Nc4cc(Cl)nc(N)n4)cc3F)ccnc21 [BAY-4900], which inhibition [17] is on record?
**A.** -1.36%

**Q.** And the residual activity [18]?
**A.** 88%

**Q.** And the residual activity [19]?
**A.** 94%
